Residue numbers refer to the chain shown, from its start.
What was measured:
in vitro = details: human
Protocol: Data was measured in triplicate, and IC50 values are given as mean values ± SD.

HL-60(TB) = assay: NCI 60 antitumor screening (single dose / five doses); assay type: cell-based; details: Homo sapiens
SK-MEL-2 = assay: as above; assay type: cell-based; details: Homo sapiens
HL-60(TB) cells [1] = assay: Annexin V-FITC/PI apoptosis assay; assay type: cell-based, human; details: GI50 (158 nM), 24 h
Protocol: Extrinsic as well as intrinsic apoptosis in leukaemia, HL-60(TB) cancer cells, induced by compound 6c was evaluated by Annexin V and PI staining. […] Compound 6c induced an early apoptosis (2.88%), in HL-60(TB) at 24 h compared to control (0.51%) and enhanced late apoptotic induction (15.75%) by more than 85-fold over the untreated cells (0.18%). Moreover, compound 6c induced necrosis by 7 times more than control as declared in Figures 8 and 9.
Annexin V-fluorescein isothiocyanate (Annexin V-FITC) has high affinity to phosphatidylserine (PS). This affinity enables detection of PS by Annexin V-FITC staining as previously described.

IDH2^R140Q = target: T1, IDH2^R140Q (Homo sapiens, UniProt P48735, R140Q); assay: biochemical
T1 sequence (P48735 40-452 R140Q): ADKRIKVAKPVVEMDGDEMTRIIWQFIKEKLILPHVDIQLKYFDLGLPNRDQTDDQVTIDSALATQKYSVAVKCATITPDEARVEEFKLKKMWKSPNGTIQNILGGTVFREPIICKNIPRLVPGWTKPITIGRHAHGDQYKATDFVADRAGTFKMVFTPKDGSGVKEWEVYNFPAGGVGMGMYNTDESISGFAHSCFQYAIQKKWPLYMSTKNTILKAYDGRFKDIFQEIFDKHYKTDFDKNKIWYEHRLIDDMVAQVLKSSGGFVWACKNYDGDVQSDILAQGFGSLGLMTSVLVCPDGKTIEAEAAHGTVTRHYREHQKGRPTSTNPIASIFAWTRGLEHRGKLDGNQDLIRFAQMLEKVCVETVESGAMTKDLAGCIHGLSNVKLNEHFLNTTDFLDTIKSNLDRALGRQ

HL-60(TB) cells [2] = assay: Cell cycle analysis (PI, flow cytometry); assay type: cell-based, human; details: 24 h
Protocol: Targeting cancer cell cycle has been emerged as a viable approach for cancer treatment. To recognise the role of compound 6c in GI of cancer cells, and induction of apoptosis in different phases, DNA flow cytometric analysis was performed to measure the effect of compound 6c on cell cycle progression for leukaemia, HL-60(TB) cancer cells.
Following that, two runs of wash with ice-cold phosphate-buffered saline (PBS) were performed. And then, the treated HL-60(TB) cells were centrifuged and frozen in ethanol (70%, ice-cold) then washed in PBS, resuspended with RNase ([…]), stained with PI ([…]), finally analysed by flow cytometry using a FACS Calibur (Becton Dickinson, BD; Franklin Lakes, NJ). To calculate the cell cycle distributions, CellQuest software version 5.1 (Becton Dickinson) was used.

[3] = tested on: 60 human subpanel cancer cell lines; assay: NCI 60 antitumor screening, mean over the panel (single dose); assay type: cell-based; details: mean over 60 cancer cell lines, single dose 10 μM
Protocol: Initially, the anticancer effects of target compounds have been assessed at a single (10 μM) dose. The obtained data have been reported as mean-graph of the percent growth (G%) of the treated cancer cells. Percentage growth inhibition (GI%) is calculated (100 − G%) and pronounced in Table 1. […] Target compounds in series (III) with manipulated linkers disclosed lower potency. Superiorly, eight s-triazine derivatives from the three series (6a, 6c, 6d, 7a, 7g, 7i, 7l, and 8b) have shown potent broad-spectrum anticancer activity against most the examined cell lines, whereas most of the remaining triazine derivatives, 20 derivatives, have exerted selective anti-proliferative actions towards certain cancer cell lines (Supplementary).
The antitumor screening was performed for 60 human cancer cell lines under the protocol of NCI (www.dtp.nci.nih.gov), the Drug Evaluation Branch, Bethesda, MD. All submitted compounds were nominated based on the degree of structural diversity and computer modelling techniques for evaluation of their anticancer activity. The screening process for antineoplastic activity passes through two successive levels, starting with the assessment of target compounds at a single dose of 10 μM against 60 cancer cell lines on nine types of human tumours. These experiments were done on a triplicate following. The output from the single‐dose screening was covered as a mean graph, and then, analysed by the COMPARE program. Finally, the compounds which disclosed subpanel cancer cell growth (G %) equal to or less than 10% in at least eight cancer cell lines get to pass the assessment against the 60 cell lines at five doses (0.01–100 μM). By using GraphPad Prism version 9.0 (Graphpad Software Inc., La Jolla, CA), GI50, TGI, as well as LC50 dose‐response parameters were computed and presented for each compound (Supplementary information)[55–57].

LOX IMVI = assay: NCI 60 antitumor screening (single dose / five doses); assay type: cell-based; details: Homo sapiens
K-562 = assay: as above; assay type: cell-based; details: Homo sapiens, K562
SF-295 = assay: as above; assay type: cell-based; details: Homo sapiens
wild type IDH2 = target: T2, wild type IDH2 (Homo sapiens, UniProt P48735); assay: IDH2 enzyme inhibition assay (wild type IDH Assay Kit)
T2 sequence (P48735 40-452): T1 sequence (P48735 40-452 R140Q) with Q101R

`Brc1cccc(/C=N/Nc2nc(N/N=C/c3cccc(Br)c3)nc(N3CCOCC3)n2)c1` [compound 6c, 2,4-Bis[(E)-2-[(3-bromophenyl)methylidene]hydrazin-1-yl]-6-(morpholin-4-yl)-1,3,5-triazine] gave an IC50 (in vitro) of 53700 ± 2940 nM, an inhibition at 10 µM (HL-60(TB); HL-60(TB) (leukaemia), single dose 10 μM, read-out: Growth inhibition percentage (GI %)) of 110% and a GI50 (HL-60(TB); HL-60(TB), five doses (0.01–100 μM), read-out: GI50) of 150 nM. It also gave an inhibition at 10 µM (SK-MEL-2; SK-MEL-2 (melanoma), single dose 10 μM, read-out: Growth inhibition percentage (GI %)) of 97.4%, a GI50 (SK-MEL-2; SK-MEL-2, five doses (0.01–100 μM)) of 2430 nM and an early apoptosis (HL-60(TB) cells [1]) of 2.88%. For the same molecule, the late apoptotic induction (HL-60(TB) cells [1]) was 15.75%, the “late apoptotic induction over the untreated cells” value (HL-60(TB) cells [1]) was “more than 85 fold” and the “necrosis induction relative to control” value (HL-60(TB) cells [1]) was 7 times. The IC50 (IDH2^R140Q) was 102 ± 4.97 nM, the “increase of apoptotic cells at the pre-G1 phase compared to DMSO” value (HL-60(TB) cells [2]; 158 nM) was 14 fold and the “Cell cycle distribution %G0–G1” value (HL-60(TB) cells [2]; GI50 concentration (158 nM)) was 54.06%. For the same molecule, the “Cell cycle distribution %G2/M” value (HL-60(TB) cells [2]; GI50 concentration (158 nM)) was 4.76%, the “Cell cycle distribution %Pre-G1” value (HL-60(TB) cells [2]; GI50 concentration (158 nM)) was 28.02% and the “Cell cycle distribution %S” value (HL-60(TB) cells [2]; GI50 concentration (158 nM)) was 41.18%. For the same molecule, the “Mean GI %” value [3] was 66%, the inhibition at 10 µM (LOX IMVI; LOX IMVI (melanoma), single dose 10 μM, read-out: Growth inhibition percentage (GI %)) was 94.8% and the GI50 (LOX IMVI; LOX IMVI, five doses (0.01–100 μM), read-out: GI50) was 2660 nM. It also gave an inhibition at 10 µM (K-562; K-562 (leukaemia), single dose 10 μM, read-out: Growth inhibition percentage (GI %)) of 85.5%, a GI50 (K-562; K-562, five doses (0.01–100 μM), read-out: GI50) of 330 nM and an inhibition at 10 µM (SF-295; SF-295 (CNS cancer), single dose 10 μM, read-out: Growth inhibition percentage (GI %)) of 70.9%. The GI50 (SF-295; SF-295, five doses (0.01–100 μM), read-out: GI50) was 4940 nM and the IC50 (wild type IDH2) was 2930 ± 110 nM.
